Measured values reported in patent publication US8173635B2, “Kinase inhibitors” (Vertex Pharmaceuticals Incorporated, priority 2007, dated 2012).
Read-outs that look alike come from different tables or passages of the source.

What was measured:
Type in all cases: biochemical
PKC theta kinase = PKC theta kinase (Homo sapiens, UniProt Q04759); test: PKC theta kinase inhibition, coupled-enzyme NADH absorbance assay (Ki)
Outline: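 Coupled-enzyme kinase assay following NADH absorbance at 340 nm, in 100 mM HEPES pH 7.5, 10 mM MgCl2, 25 mM NaCl, 0.1 mM EDTA, 0.01% Brij. Compound in DMSO preincubated with enzyme 10 min at 30 °C. Ki from initial rates by non-linear regression.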

PKC delta kinase = PKC delta kinase (Homo sapiens, UniProt Q05655); test: PKC delta kinase inhibition, coupled-enzyme NADH absorbance assay (Ki)
Chain of PKC delta kinase (Q05655 whole entry): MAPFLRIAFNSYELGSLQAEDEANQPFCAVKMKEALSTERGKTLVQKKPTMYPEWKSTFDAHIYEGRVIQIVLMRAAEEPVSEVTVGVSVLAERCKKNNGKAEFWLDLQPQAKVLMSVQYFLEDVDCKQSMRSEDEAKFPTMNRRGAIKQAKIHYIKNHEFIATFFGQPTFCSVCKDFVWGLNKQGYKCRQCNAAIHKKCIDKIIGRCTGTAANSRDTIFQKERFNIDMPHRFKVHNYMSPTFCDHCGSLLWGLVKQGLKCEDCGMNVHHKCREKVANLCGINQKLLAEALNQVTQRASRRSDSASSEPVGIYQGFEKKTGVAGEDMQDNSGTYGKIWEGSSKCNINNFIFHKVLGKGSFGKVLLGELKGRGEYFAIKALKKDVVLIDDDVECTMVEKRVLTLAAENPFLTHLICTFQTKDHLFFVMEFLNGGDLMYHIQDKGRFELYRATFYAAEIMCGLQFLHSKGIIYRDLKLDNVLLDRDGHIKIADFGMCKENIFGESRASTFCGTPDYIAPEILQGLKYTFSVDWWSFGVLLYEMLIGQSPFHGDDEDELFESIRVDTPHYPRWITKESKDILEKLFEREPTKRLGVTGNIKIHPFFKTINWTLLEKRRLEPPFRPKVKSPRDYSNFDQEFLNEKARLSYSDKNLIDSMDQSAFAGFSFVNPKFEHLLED
Outline: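 Assay buffer was 100 mM HEPES pH 7.5, 10 mM MgCl2, 25 mM NaCl, 0.1 mM EDTA, 0.01% Brij. Enzyme buffer was equilibrated with compound in DMSO for 10 min at 30 °C. Ki values were derived by non-linear regression of initial rate data.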

PKC alpha kinase = PKC alpha kinase (Homo sapiens, UniProt P17252); test: PKC alpha kinase inhibition, coupled-enzyme NADH absorbance assay (Ki)
[1] = 240 μM ATP, 18 nM PKC theta, 30° C., read-out: Ki PKC theta
[2] = 150 μM ATP, 46 nM PKC delta, 30° C., read-out: Ki PKC delta
[3] = 130 μM ATP, 4.5 nM PKC alpha, 30° C., read-out: Ki PKC alpha

Chain of PKC theta kinase (Q04759 whole entry): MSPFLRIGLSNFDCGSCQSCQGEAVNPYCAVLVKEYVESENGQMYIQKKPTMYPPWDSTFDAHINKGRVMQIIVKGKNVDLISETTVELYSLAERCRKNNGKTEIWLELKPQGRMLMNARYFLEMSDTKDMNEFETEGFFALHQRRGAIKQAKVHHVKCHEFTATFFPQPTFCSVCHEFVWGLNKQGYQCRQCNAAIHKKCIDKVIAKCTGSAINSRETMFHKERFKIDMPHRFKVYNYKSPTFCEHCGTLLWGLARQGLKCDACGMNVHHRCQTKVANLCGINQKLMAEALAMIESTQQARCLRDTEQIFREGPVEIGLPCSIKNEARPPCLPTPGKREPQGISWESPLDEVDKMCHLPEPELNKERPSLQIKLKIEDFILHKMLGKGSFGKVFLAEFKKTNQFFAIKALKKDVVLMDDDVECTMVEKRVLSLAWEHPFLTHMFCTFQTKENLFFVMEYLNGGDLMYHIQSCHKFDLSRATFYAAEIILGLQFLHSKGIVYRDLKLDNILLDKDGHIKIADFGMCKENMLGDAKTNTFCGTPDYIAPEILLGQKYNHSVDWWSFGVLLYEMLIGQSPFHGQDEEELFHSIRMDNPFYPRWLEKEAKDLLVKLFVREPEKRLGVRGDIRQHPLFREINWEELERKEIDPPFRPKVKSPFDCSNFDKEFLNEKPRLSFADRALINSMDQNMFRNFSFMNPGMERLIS

| Compound | Ki (PKC theta kinase; [1]) [nM] | Ki (PKC delta kinase; [2]) [nM] | Ki (PKC alpha kinase; [3]) [nM] | Ki (PKC theta kinase) [nM] | Ki (PKC delta kinase) [nM] | Ki (PKC alpha kinase) [nM] |
| --- | --- | --- | --- | --- | --- | --- |
| C=CCC(C)(C#N)c1cccc(-c2ccnc3[nH]ncc23)c1 (stereo not drawn) [Compound 90] | < 500 | < 2800 | < 2800 | – | – | – |
| CCC(C)(CN)c1cccc(-c2ccnc3[nH]ncc23)c1 (stereo not drawn) [Compound 41] | < 50 | < 50 | < 500 | – | – | – |
| Cc1cc(-c2ccnc3[nH]ncc23)cc(C2(Cc3ccccc3)CNC(=O)O2)c1 (stereo not drawn) [Compound 327] | < 500 | > 1200 | < 2800 | – | – | – |
| C=CCc1cc(-c2ccnc3[nH]ncc23)cc(C(C)(C)CN)c1 [Compound 52] | < 500 | < 2800 | < 2800 | – | – | – |
| N#CC1(c2cccc(-c3ccnc4[nH]ncc34)c2)CC1 [Compound 98] | < 50 | < 500 | < 2800 | – | – | – |
| N#CC1(c2cc(CCN)cc(-c3ccnc4[nH]ncc34)c2)CC1 [Compound 128] | < 500 | > 2000 | > 1200 | – | – | – |
| COCCCC(C)(CN)c1cccc(-c2ccnc3[nH]ncc23)c1 (stereo not drawn) [Compound 169] | < 50 | < 500 | < 2800 | – | – | – |
| CCC(C)(CN)c1cc(F)cc(-c2ccnc3[nH]nc(C(F)(F)F)c23)c1 (stereo not drawn) [Compound 277] | < 50 | < 50 | < 50 | – | – | – |
| CCC(C)(C#N)c1cc(-c2ccnc3[nH]ncc23)cc(C(F)(F)CC2CCCCC2)c1 (stereo not drawn) [Compound 119] | > 700 | > 2000 | > 1200 | – | – | – |
| NCCc1cc(Br)cc(-c2ccnc3[nH]ncc23)c1 [Compound 176] | – | – | – | < 500 | < 2800 | > 1200 |
| N#CC1(c2cc(CCCN)cc(-c3ccnc4[nH]nc(C(F)(F)F)c34)c2)CC1 [Compound 283, 1-(3-(3-aminopropyl)-5-(3-(trifluoromethyl)-1H-pyrazolo[3,4-b]pyridin-4-yl)phenyl)cyclopropanecarbonitrile] | < 50 | < 2800 | < 500 | – | – | – |
| CCC(C)(C#N)c1cc(-c2ccnc3[nH]ncc23)cc(C(F)(F)CCC2CCCCC2)c1 (stereo not drawn) [Compound 118] | > 700 | > 2000 | > 1200 | – | – | – |
| CC(C)(C#N)c1cc(N)cc(-c2ccnc3[nH]ncc23)c1 [Compound 13] | < 500 | < 2800 | < 2800 | – | – | – |
| COC(CN)c1cc(C)cc(-c2ccnc3[nH]ncc23)c1 (stereo not drawn) [Compound 248] | < 500 | < 2800 | < 2800 | – | – | – |
| CCC(C)(C#N)c1cc(Br)cc(-c2ccnc3[nH]ncc23)c1 (stereo not drawn) [Compound 30] | < 500 | < 2800 | < 2800 | – | – | – |
| CCC(C)(CNC)c1cccc(-c2ccnc3[nH]ncc23)c1 (stereo not drawn) [Compound 141] | < 50 | < 500 | < 500 | – | – | – |
| C/C=C/c1cc(-c2ccnc3[nH]ncc23)cc(C(C)(C)C#N)c1 [Compound 54] | < 500 | > 2800 | > 2800 | – | – | – |
| NCC1(c2cc(N)cc(-c3ccnc4[nH]ncc34)c2)CCC1 [Compound 190] | < 500 | > 2000 | > 1200 | – | – | – |
| CCC(CN)c1cccc(-c2ccnc3[nH]nc(C(F)(F)F)c23)c1 (stereo not drawn) [Compound 281] | < 50 | < 50 | < 500 | – | – | – |
| CC(C)(O)CCc1cc(-c2ccnc3[nH]nc(C(F)(F)F)c23)cc(C2(C#N)CC2)c1 [Compound 316] | < 50 | > 1200 | > 1200 | – | – | – |
| CCC(C)(C#N)c1cc(-c2ccnc3[nH]ncc23)cc(C(C)F)c1 (stereo not drawn) [Compound 105] | < 500 | > 2000 | < 2800 | – | – | – |
| N#CC(CCN)c1cccc(-c2ccnc3[nH]ncc23)c1 (stereo not drawn) [Compound 225] | < 500 | < 2800 | < 2800 | – | – | – |
| Cc1cc(-c2ccnc3[nH]ncc23)cc(C(C)(C)CN)c1 [Compound 32] | < 50 | < 500 | < 500 | – | – | – |
| NC(CC1CCCCC1)c1cccc(-c2ccnc3[nH]nc(C(F)(F)F)c23)c1 (stereo not drawn) [Compound 298] | > 700 | > 1200 | > 1200 | – | – | – |
| CCc1cc(-c2ccnc3[nH]ncc23)cc(C(C)(C)CN)c1 [Compound 44] | < 500 | < 2800 | < 2800 | – | – | – |
| CC(CN)(CC1CC1)c1cccc(-c2ccnc3[nH]ncc23)c1 (stereo not drawn) [Compound 129] | < 50 | < 50 | < 500 | – | – | – |
| CC(C#N)(CC(F)F)c1cccc(-c2ccnc3[nH]ncc23)c1 (stereo not drawn) [Compound 99] | < 500 | < 2800 | < 2800 | – | – | – |
| CCCCNC(CC)c1cccc(-c2ccnc3[nH]ncc23)c1 (stereo not drawn) [Compound 247] | < 500 | > 1200 | > 1200 | – | – | – |
